Values belong to the molecule of their own block, whether it stands above or below them.
What was measured:
Neu3 mRNA = experiment: Q-RT PCR of Neu3 mRNA in stably shRNA-transduced CHO-hIFNγ cells; type: cell-based, CHO (Chinese hamster ovary); details: FIG. 7C
Protocol: (§1) The expression of each of the three CHO sialidase genes was knocked down using small interfering RNA (siRNA) technologies. Based on the cDNA sequences, several siRNAs against the CHO sialidase genes (Neu1, Neu2, and Neu3) were designed and synthesized for each gene. These siRNAs were transfected into a CHO cell line stably expressing human interferon gamma (CHO-hIFNγ). The transfections were performed in duplicate. Forty-eight hours after transfection, the cells were harvested. RNA and protein were isolated from the transfected cells. Reverse transcription polymerase chain reaction, (RT-PCR) and quantitative RT-PCR (Q-RT-PCR) using gene-specific primers were performed using standard procedures.
(§2) DNA fragments encoding the effective siRNAs for each sialidase gene (Neu1-S4, Neu2-S3, Neu3-S2) were cloned into the pLKO.1-puro shRNA expression vector. After DNA sequencing confirmation, plasmid DNAs were transfected into HEK293 cells to produce lentivirus packed with shRNA cassettes. After infection of suspension CHO-hIFNγ cells with lentivirus containing shRNA cassettes and puromycin selection, CHO-hIFNγ cells harboring shRNA cassettes for Neu1, Neu2 and Neu3 genes were obtained. Q-RT PCR was performed to confirm gene-silencing effects at the level of mRNA (FIG. 7). […]

[1] = test system: sialidase activity in CHO-hIFNγ cells; experiment: Sialidase activity assay in CHO-hIFNγ cells harboring shRNA; type: cell-based, CHO (Chinese hamster ovary); details: stable shRNA, FIG. 8
Protocol: (§3) Twenty-four hours after transfection, the cells were lysed by sonication. The cell debris was removed by centrifugation at 1000×g for 10 min at 4° C. and the supernatant factions were collected for enzymatic activity. The sialidase assay was performed as previously described (Gramer et al. (1993) Biotechnol Prog 9: 366-373) using 1 mM of 4-methylumbelliferone-Neu5Ac as substrate. For each lysate, 100 μg of protein was used in the assay. The assay was performed in triplicate. […] In fact, the Neu3 protein had more than approximately 6-15 times as much activity as Neu2.
as §2, with “7). The mRNA expression knockdown of Neu1 (Neu1-S4) was over 95% in Neu1-shRNA cells (FIG. 7A), about 50% knockdown with Neu2 (Neu2-S3) in Neu2-shRNA cells (FIG. 7B), and over 70% knockdown with Neu3 (Neu3-S2) in Neu3-shRNA cells (FIG. 7C).” for “7).”

[2] = test system: hIFNγ protein produced by CHO-hIFNγ cells; experiment: Sialic acid content of purified hIFNγ from shRNA CHO cells by HPLC; type: cell-based, CHO (Chinese hamster ovary); details: for sialic acid content of hIFNγ protein: n=4; for levels of sialic acid in hIFNγ protein versus non-target shRNA control: day 6
Protocol: The levels of sialic acid were analyzed by HPLC in human IFNγ protein produced by the sialidase shRNA targeted cells and non-target shRNA control cells. Spent media samples were collected from 5 L bioreactor cultures at stationary phase (day 6, cell viability around 95%) and death phase (day 13, cell viability around 20%). Human interferon gamma proteins were purified from cell culture supernatants by immunoaffinity purification. Briefly, after centrifugation and filtration to remove cell debris, 30 ml of a protein sample was loaded on an affinity column conjugated with hIFNγ antibody. After washing the column, hIFNγ protein was eluted with elution buffer. Purification was carried out on an AKTA Explorer 100 chromatographic system (Amersham Biosciences). The purified protein was quantified by ELISA as previously described.
The sialylation of purified hIFNγ proteins were analyzed by HPLC. Briefly, 50 μg of purified hIFNγ protein sample was lyophilized and resuspended in 100 μl of ultrapure water with 2N acetic acid. The sample was hydrolyzed at 80° C. for 3 hours. Then the sample was filtered and speed-vac dried. Released sialic acid residues were derivatized with a fluorogenic compound, 1,2-diamino-4,5-(methylenedioxy)benzene (DMB), followed by HPLC using C18 reverse phase column.

CHO Neu3 = experiment: Sialidase assay in the presence of sialidase inhibitors, CHO Neu3; type: biochemical, CHO (Chinese hamster ovary)
Protocol: (§4) Enzymatic sialidase activity studies were performed to confirm that the proteins coded by these two new genes having the expected functions in CHO cells. Briefly, the coding regions for the Neu1 (SEQ ID NO:1) and Neu3 (SEQ ID NO:3) genes, as well as the coding region of the previously reported Neu2 gene (Ferrari et al. (1994) Glycobiology 4(3):367-373) were cloned into pcDNA3.1 mammalian expression vectors. The expression constructs then were transfected into COS7 cells to overexpress the sialidase proteins. The pcDNA3.1 vector alone was also transfected into COS7 cells as the mock transfection. An expression construct containing green fluorescence protein (GFP) was cotransfected into the COS7 cells to normalize the transfection efficiency.
as §3, with “Neu2. […]” for “Neu2.”

[3] = test system: proteins encoded by the CHO Neu1, Neu2, and Neu3 genes; experiment: Sialidase assay in the presence of sialidase inhibitors, all sialidases; type: biochemical, CHO (Chinese hamster ovary); details: two concentrations, FIG. 2
Protocol: as §4
as §3, with “Neu2. […]” for “Neu2.”

Neu2 mRNA = experiment: Q-RT PCR of Neu2 mRNA in stably shRNA-transduced CHO-hIFNγ cells; type: cell-based, CHO (Chinese hamster ovary); details: FIG. 7B
Protocol: as §1, §2

Neu1 mRNA = experiment: Q-RT PCR of Neu1 mRNA in stably shRNA-transduced CHO-hIFNγ cells; type: cell-based, CHO (Chinese hamster ovary); details: FIG. 7A
Protocol: as §1, §2

[4] = Sialidase assay on lysates of COS7 cells overexpressing CHO sialidase proteins; type: biochemical, CHO (Chinese hamster ovary)
Protocol: as §4, §3

Molecule: Neu3-S2: siRNA/shRNA against CHO Neu3; sense GUACCAGCCGUGUGUUACUtt (SEQ ID NO 18), antisense AGUAACACACGGCUGGUACtt (SEQ ID NO 19) (sense GUACCAGCCGUGUGUUACUTT; antisense AGUAACACACGGCUGGUACTT; chemistry not given here; listed as Cricetulus griseus)
mRNA expression knockdown of Neu3 (Neu3 mRNA): over 70%
sialidase activity compared to non-target shRNA control [1]: most dramatic reduction
sialic acid content of hIFNγ protein ([2]; day 6 (stationary phase)): 2.133±0.101 pmol sialic acid/pmol hIFNγ

decrease of sialidase activity (CHO Neu3; 0.1 mM inhibitor): about 30%
reduction of sialidase activity (CHO Neu3; 0.5 mM inhibitor): about 60%
inhibitory effect on sialidase activity (comparison of the two inhibitors) [3]: greater inhibitory effects than Neu5Ac
Molecule: CC(=O)N[C@H]1[C@H]([C@H](O)[C@H](O)CO)OC(C(=O)O)=C[C@@H]1O [Neu5Ac2en]

Molecule: Neu2-S3: siRNA/shRNA against CHO Neu2; sense GACGGAUGAGCAUGCAGAUtt (SEQ ID NO 14), antisense AUCUGCAUGCUCAUCCGUCtt (SEQ ID NO 15) (sense GACGGAUGAGCAUGCAGAUTT; antisense AUCUGCAUGCUCAUCCGUCTT; chemistry not given here; listed as Cricetulus griseus)
mRNA expression knockdown of Neu2 (Neu2 mRNA): about 50%
levels of sialic acid in hIFNγ protein versus non-target shRNA control [2]: not significantly different
sialic acid content of hIFNγ protein ([2]; day 6 (stationary phase)): 1.945±0.111 pmol sialic acid/pmol hIFNγ
sialic acid content of hIFNγ protein ([2]; day 13 (death phase)): 4.948±0.150 pmol sialic acid/pmol hIFNγ

Molecule: Neu1-S4: siRNA/shRNA against CHO Neu1; sense GGACACUACGCGUCAUCUGtt (SEQ ID NO 10), antisense CAGAUGACGCGUAGUGUCCtt (SEQ ID NO 11) (sense GGACACUACGCGUCAUCUGTT; antisense CAGAUGACGCGUAGUGUCCTT; chemistry not given here; listed as Cricetulus griseus)
mRNA expression knockdown of Neu1 (Neu1 mRNA): over 95%
levels of sialic acid in hIFNγ protein versus non-target shRNA control [2]: not significantly different
sialylation of hIFNγ versus non-target shRNA control ([2]; day 13): no obvious improvement

B1: CHO Neu3: CHO plasma membrane-associated sialidase, 417 aa, SEQ ID NO:4 (protein, listed as Cricetulus griseus)
chain: MEEVSACSLNSTLFQQEHQKGTTYRIPALLYIPPSHTFLAFAEKRSSSKDVDALHLVLRRGVMKGHSVEWGPLQPLMEATLPGHRTMNPCPVWEQSTSRVLLFFICVPDRVTEHWQIRSGKNAARLCFLCSQDAGCSWGEVKDLTEEVIGSELKHWATFAVGPGHGIRLQSGRLIIPTYAYYFSCRFLCFPCSVKPHSLMIYSDDLGVTWHHGKLIGPQVTGECQVAEVTGTSGNLVLYCNARTPNRFRAESFSTDYGDCFQKPTLNTQLCEPRYGCQGSIVSFQPLKMPFSQDPIGKAAPTTQKSPLLDSFLEREEGVGRPSGTWLLYSHPTSKKRRINLGIYYNRNPLEVTCWSRPWILHCGPCGYSDLAVVEEQGLFACLFECGQEHECEQIAFRLFSVQEVLSCEDCTGPSRD
sialidase activity compared to negative control (mock transfection) and positive control (Neu2) ([4]; 100 μg lysate protein, 1 mM 4-methylumbelliferone-Neu5Ac, normalized with GFP readings): significant sialidase activities
sialidase activity relative to Neu2 ([4]; more than approximately, lysates of transfected COS7 cells): 6-15 times
sialic acid content of hIFNγ protein ([2]; day 13 (death phase)): 5.175±0.414 pmol sialic acid/pmol hIFNγ

Reference: patent US8273723B2, “Compositions and methods for improved glycoprotein sialylation” (Sigma-Aldrich Co. LLC, priority 2007, dated 2012)
